The test system of the test is male cynomolgus monkeys. Nature of the test: Sleep-inducing test by cisternal administration. The note with it: cisternal infusion; for Sleep time: sleep time over three hours after administration, four male cynomolgus monkeys; for Number of slept animals: three hours after administration. It counts as in vivo. The method, then: Sleep-Inducing Test by Cisternal Administration
Four male cynomolgus monkeys weighing 2.0-3.5 kg were individually placed in cages. The behaviors of the respective animals were recorded by videotape from one hour before drug administration to three hours after drug administration. Compound 16 was dissolved in physiological saline solution and sterilized using a Minipore filter. The drug was cisternally infused into the monkeys anesthetized with isoflurane inhalation. The dose was 10 μg/0.1 ml per monkey and 100 μg/0.1 ml per monkey. The same dose of the vehicle was infused cisternally to the control group. The test schedule was carried out according to the following protocol.
Week 1: Group treated with vehicle
Week 2: Group treated with 10 μg of Compound 16/monkey
Week 3: Group treated with 100 μg of Compound 16/monkey
The sleep times at three hours after administration were determined by playing back the recorded videotape and measuring the times (second) during which the animals relaxed with their both eyes closed, which are shown in Table 2.

Turning to `O=C(O)C#CCCSCC1C(Cl)CC(O)C1C#CC(O)C1CCCCC1` (stereo not drawn) [Compound 16, 9-Deoxy-9β-chloro-16,17,18,19,20-pentanor-15-cyclohexyl-2,2,3,3,13,14-hexadehydro-6-thia-PGF1α], the Sleep time was determined as 293 s (10 μg/0.1 ml per monkey) and 1734 s (100 μg/0.1 ml per monkey). Further, the “Number of slept animals” value (10 μg/0.1 ml per monkey) is recorded as 3/4 and the “Number of slept animals” value (100 μg/0.1 ml per monkey) is 4/4.

(Values after US7763652B2, “Prostaglandin derivatives” (Taisho Pharmaceutical Co., Ltd., priority 2002, dated 2010).)
